Assay results: US10760110B2, “Antibiotic testing and screening system” (priority 2017, dated 2020)
In brackets after ≈: the same amount, converted by molar mass. Like-named read-outs stand apart in the source and are kept apart here.

How the values were obtained:
Conditions in all cases: Klebsiella pneumoniae
[1] = tested on: K. pneumoniae NVT1001 and its ΔompK35/36 and/or ΔramR mutants; assay: Etest MIC, OmpK35/36 loss and AcrAB-TolC overexpression (ΔramR) strains (Table 6); format: cell-based, Klebsiella pneumoniae
Method in brief: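 Etest MICs against K. pneumoniae NVT1001 and its ΔompK35/36 and/or ΔramR mutants, rounded up to the next two-fold value. For NVT1001 carrying pACYC177-blaOXA-48, ceftazidime and cefotaxime MICs by CLSI broth microdilution, interpreted with CLSI 2017 breakpoints.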

[2] = tested on: K. pneumoniae NVT1001 ΔramRΔompK35/36 mutant and its revertants; assay: Etest MIC, ΔramRΔompK35/36 mutant and its revertants (Table 7); format: cell-based
[3] = tested on: K. pneumoniae NVT1001 strains with carbapenemase plasmids; assay: Etest MIC of β-lactams, OmpK35/36 loss, ΔramR and/or carbapenemase (Table 9); format: cell-based, Klebsiella pneumoniae
Experimental: DNA fragments of the resistance genes along with their flanking regions were amplified from clinical plasmids via PCR with specific primer pairs. The resulting PCR fragments were digested and then cloned into the plasmid pACYC177 or pACYC184. The resulting plasmids were then transformed into K. pneumoniae strain NVT1001 via electroporation. The recombinant bacteria were plated onto LB agar plates containing kanamycin (50 mg/L) or chloramphenicol (50 mg/L), and the presence of the cloned gene was confirmed via PCR and DNA sequencing.
The MICs of antibiotics were determined using the Etest (Biodisk AB, Sweden) according to the manufacturer's instructions. The MICs from the Etest, which fall between standard two-fold dilutions, were rounded up to the next highest two-fold value. The MICs of ceftazidime and cefotaxime against K. pneumoniae NVT1001 harbouring the pACYC177 plasmid with blaOXA-48 were further determined using a broth microdilution test according to the recommendations of the CLSI,^25 and the results were interpreted according to the breakpoints established by the CLSI in 2017.^25 Meanwhile, due to the lack of CLSI breakpoints in 2016 and 2017, the results for cephalothin were interpreted according to the breakpoints established by the CLSI in 2015,^26 and the results for moxifloxacin were interpreted according to the breakpoints established by the EUCAST in 2017.^27

Question: What does the source list for `CC(=O)OCC1=C(C(=O)O)N2C(=O)[C@@H](NC(=O)Cc3cccs3)[C@H]2SC1` [Cephalothin]?
Answer: MIC ([1]; WT, NVT1001, read-out: MIC): 8 µg/mL (≈ 20.2 µM); MIC ([1]; Δ35, ΔompK35 mutant): 8 µg/mL (≈ 20.2 µM); MIC ([1]; Δ35/36, ΔompK35/36 mutant): 256 µg/mL (≈ 646 µM); MIC ([1]; Δ36, ΔompK36 mutant): 16 µg/mL (≈ 40.4 µM); MIC ([1]; ΔramR mutant): 64 µg/mL (≈ 161 µM); MIC ([1]; ΔramRΔ35, ΔramRΔompK35 mutant): 64 µg/mL (≈ 161 µM); MIC ([1]; ΔramRΔ35/36, ΔramRΔompK35/36 mutant): > 256 µg/mL; MIC ([1]; ΔramRΔ36, ΔramRΔompK36 mutant): > 256 µg/mL; MIC ([2]; ΔramRΔompK35/36::ompK35/36 revertant): 64 µg/mL; MIC ([2]; ΔramRΔompK35/36::ompK35 revertant): > 256 µg/mL; MIC ([2]; ΔramRΔompK35/36::ompK36 revertant): 128 µg/mL; MIC ([2]; ΔramRΔompK35/36::ramR revertant): > 256 µg/mL; MIC ([2]; ΔramRΔompK35/36::ramR::ompK35/36 revertant): 8 µg/mL; MIC ([2]; ΔramRΔompK35/36::ramR::ompK35 revertant): 32 µg/mL; MIC ([2]; ΔramRΔompK35/36::ramR::ompK36 revertant): 8 µg/mL; MIC ([2]; ΔramRΔompK35/36 mutant): > 256 µg/mL; MIC ([3]; IMP-8 on pACYC177, WT (NVT1001), read-out: MIC): > 256 µg/mL; MIC ([3]; IMP-8 on pACYC177, Δ35 (ΔompK35 mutant)): > 256 µg/mL; MIC ([3]; IMP-8 on pACYC177, Δ35/36 (ΔompK35/36 mutant)): > 256 µg/mL; MIC ([3]; IMP-8 on pACYC177, Δ36 (ΔompK36 mutant)): > 256 µg/mL; MIC ([3]; IMP-8 on pACYC177, ΔramR mutant): > 256 µg/mL; MIC ([3]; IMP-8 on pACYC177, ΔramRΔ35 (ΔramRΔompK35 mutant)): > 256 µg/mL; MIC ([3]; IMP-8 on pACYC177, ΔramRΔ35/36 (ΔramRΔompK35/36 mutant)): > 256 µg/mL; MIC ([3]; IMP-8 on pACYC177, ΔramRΔ36 (ΔramRΔompK36 mutant)): > 256 µg/mL; MIC ([3]; KPC-2 on pACYC177, WT (NVT1001), read-out: MIC): > 256 µg/mL; MIC ([3]; KPC-2 on pACYC177, Δ35 (ΔompK35 mutant)): > 256 µg/mL; MIC ([3]; KPC-2 on pACYC177, Δ35/36 (ΔompK35/36 mutant)): > 256 µg/mL; MIC ([3]; KPC-2 on pACYC177, Δ36 (ΔompK36 mutant)): > 256 µg/mL; MIC ([3]; KPC-2 on pACYC177, ΔramR mutant): > 256 µg/mL; MIC ([3]; KPC-2 on pACYC177, ΔramRΔ35 (ΔramRΔompK35 mutant)): > 256 µg/mL; MIC ([3]; KPC-2 on pACYC177, ΔramRΔ35/36 (ΔramRΔompK35/36 mutant)): > 256 µg/mL; MIC ([3]; KPC-2 on pACYC177, ΔramRΔ36 (ΔramRΔompK36 mutant)): > 256 µg/mL; MIC ([3]; KPC-3 on pACYC177, WT (NVT1001), read-out: MIC): > 256 µg/mL; MIC ([3]; KPC-3 on pACYC177, Δ35 (ΔompK35 mutant)): > 256 µg/mL; MIC ([3]; KPC-3 on pACYC177, Δ35/36 (ΔompK35/36 mutant)): > 256 µg/mL; MIC ([3]; KPC-3 on pACYC177, Δ36 (ΔompK36 mutant)): > 256 µg/mL; MIC ([3]; KPC-3 on pACYC177, ΔramR mutant): > 256 µg/mL; MIC ([3]; KPC-3 on pACYC177, ΔramRΔ35 (ΔramRΔompK35 mutant)): > 256 µg/mL; MIC ([3]; KPC-3 on pACYC177, ΔramRΔ35/36 (ΔramRΔompK35/36 mutant)): > 256 µg/mL; MIC ([3]; KPC-3 on pACYC177, ΔramRΔ36 (ΔramRΔompK36 mutant)): > 256 µg/mL; MIC ([3]; NDM-1 on pACYC177, WT (NVT1001), read-out: MIC): > 256 µg/mL; MIC ([3]; NDM-1 on pACYC177, Δ35 (ΔompK35 mutant)): > 256 µg/mL; MIC ([3]; NDM-1 on pACYC177, Δ35/36 (ΔompK35/36 mutant)): > 256 µg/mL; MIC ([3]; NDM-1 on pACYC177, Δ36 (ΔompK36 mutant)): > 256 µg/mL; MIC ([3]; NDM-1 on pACYC177, ΔramR mutant): > 256 µg/mL; MIC ([3]; NDM-1 on pACYC177, ΔramRΔ35 (ΔramRΔompK35 mutant)): > 256 µg/mL; MIC ([3]; NDM-1 on pACYC177, ΔramRΔ35/36 (ΔramRΔompK35/36 mutant)): > 256 µg/mL; MIC ([3]; NDM-1 on pACYC177, ΔramRΔ36 (ΔramRΔompK36 mutant)): > 256 µg/mL; MIC ([3]; OXA-48 on pACYC177, WT (NVT1001), read-out: MIC): 256 µg/mL; MIC ([3]; OXA-48 on pACYC177, Δ35 (ΔompK35 mutant)): 256 µg/mL; MIC ([3]; OXA-48 on pACYC177, Δ35/36 (ΔompK35/36 mutant)): > 256 µg/mL; MIC ([3]; OXA-48 on pACYC177, Δ36 (ΔompK36 mutant)): > 256 µg/mL; MIC ([3]; OXA-48 on pACYC177, ΔramR mutant): > 256 µg/mL; MIC ([3]; OXA-48 on pACYC177, ΔramRΔ35 (ΔramRΔompK35 mutant)): > 256 µg/mL; MIC ([3]; OXA-48 on pACYC177, ΔramRΔ35/36 (ΔramRΔompK35/36 mutant)): > 256 µg/mL; MIC ([3]; OXA-48 on pACYC177, ΔramRΔ36 (ΔramRΔompK36 mutant)): > 256 µg/mL; MIC ([3]; VIM-1 on pACYC177, WT (NVT1001), read-out: MIC): > 256 µg/mL; MIC ([3]; VIM-1 on pACYC177, Δ35 (ΔompK35 mutant)): > 256 µg/mL; MIC ([3]; VIM-1 on pACYC177, Δ35/36 (ΔompK35/36 mutant)): > 256 µg/mL; MIC ([3]; VIM-1 on pACYC177, Δ36 (ΔompK36 mutant)): > 256 µg/mL; MIC ([3]; VIM-1 on pACYC177, ΔramR mutant): > 256 µg/mL; MIC ([3]; VIM-1 on pACYC177, ΔramRΔ35 (ΔramRΔompK35 mutant)): > 256 µg/mL; MIC ([3]; VIM-1 on pACYC177, ΔramRΔ35/36 (ΔramRΔompK35/36 mutant)): > 256 µg/mL; MIC ([3]; VIM-1 on pACYC177, ΔramRΔ36 (ΔramRΔompK36 mutant)): > 256 µg/mL; MIC ([3]; no supplemental plasmid, WT (NVT1001), read-out: MIC): 8 µg/mL; MIC ([3]; no supplemental plasmid, Δ35 (ΔompK35 mutant)): 8 µg/mL; MIC ([3]; no supplemental plasmid, Δ35/36 (ΔompK35/36 mutant)): 256 µg/mL; MIC ([3]; no supplemental plasmid, Δ36 (ΔompK36 mutant)): 16 µg/mL; MIC ([3]; no supplemental plasmid, ΔramR mutant): 64 µg/mL; MIC ([3]; no supplemental plasmid, ΔramRΔ35 (ΔramRΔompK35 mutant)): 64 µg/mL; MIC ([3]; no supplemental plasmid, ΔramRΔ35/36 (ΔramRΔompK35/36 mutant)): > 256 µg/mL; MIC ([3]; no supplemental plasmid, ΔramRΔ36 (ΔramRΔompK36 mutant)): > 256 µg/mL
